This passage reports melting point results from a melting point compilation (Tetko et al.; mined from patent text by program, amines drawn as free bases though some values may be those of a salt).

As for `O=C1CC2(CCCC2)CC(=O)N1CCCCN1CCN(C(c2ccc(F)cc2)c2ccc(F)cc2)CC1`, the melting point (in general, the temperature, or range, at which the solid turns liquid) was in the range of 165 to 169 °C.
In turn, `CCOCC(O)COc1cccc2oc(-c3ccccc3)cc(=O)c12` (configuration not stated) showed a melting point of 85 to 86.5 °C.
With `CCCCCCCCCCCC(CCCCC(=O)N(c1ccccc1)c1ccccc1)OC` (configuration not stated), the melting point lay in the range of 51 to 52 °C.
For the compound `O=C1C(=Cn2ccnc2)C(c2ccccc2)Oc2ccccc21` (configuration not stated), the melting point was 129 to 131 °C.
Turning to `CCCC1=C(C(=O)OCC)C(c2cccc(C#N)c2OC)c2c[nH]nc2N1` (configuration not stated), the melting point fell in the range of 220 to 222 °C.
The value for `CCCCCCCCCCCCCCCCCCCCCC(=O)Nc1ccc(NC(=O)NS(=O)(=O)c2ccc3ccccc3c2)cc1` was 179 °C.
For the compound `CC(C)CC(NC(=O)c1cc(F)ccc1SSc1ccc(F)cc1C(=O)NC(CC(C)C)C(=O)O)C(=O)O` (configuration not stated), the melting point fell in the range of 246 to 247 °C.
`Cc1noc(NS(=O)(=O)c2ccsc2C(=O)Oc2ccc3c(c2)OCO3)c1Cl` displayed a melting point of 189 to 191 °C.
`CCCCCCCN(CCCCCSc1nc2ncccc2[nH]1)C(=O)NC(C)C`: the melting point lay in the range of 101 to 102 °C.
For the compound `Cc1nc2sccn2c1C1=NNC(=O)CN1`, the melting point lay within 270 to 273 °C.
In turn, `CCCC(O)C1(CCC)c2ccccc2-c2ccccc21` (configuration not stated) yielded a melting point of 83 to 85 °C.
With `COc1cc(C)nc2ccc(NC(=O)C=Cc3ccccc3Cl)cc12`, the melting point lay in the range of 228 to 229 °C.
On to `COc1ccc(F)c2c1C(=O)CC2`, for which the melting point lay in the range of 118 to 120 °C.
The value for `CCC1=NN=C(c2ccc(OC)c(OC)c2)c2cc(OC)c(OC)cc2C1C` (configuration not stated) was 157 to 158 °C; that for `CC(C)C[C@H](NC(=O)c1cccc(Cl)c1)C(=O)N[C@@H](C(C)C)[C@@H](O)c1c(-c2ccccc2)c1=O` was 179 °C; that for `COc1ccc(N2N=C(C)C(C(=O)Nc3ccc(F)cc3)C2=O)cc1` (configuration not stated) was 125 to 128 °C.
In turn, `CCOC(=O)c1cnc2ccc(Oc3ccccc3)nc2c1Cl` displayed a melting point of 133 to 137 °C.
The value for `O=Cc1cc(Cl)cc2c1OC(C(F)(F)F)C(C(=O)O)=C2` (configuration not stated) was 243 to 252 °C; that for `CC(C)(C)OC(=O)N1CCO[C@@H](c2ccc(C#N)cc2)C1` was 104 °C.
Take `CC(C)C(NS(=O)(=O)c1ccc(-c2ccccc2)cc1)C(=O)O` (configuration not stated): the melting point was 164 to 166 °C.
`Cc1cn(C2CCN(c3c(F)c(C)c4c(=O)c(C(=O)O)cn(C5CC5)c4c3F)C2)nn1` (configuration not stated) displayed a melting point of 232 to 234 °C.
`N#Cc1cc([N+](=O)[O-])ccc1OCc1ccc2ccccc2n1` displayed a melting point of 161 to 162 °C.
As to `O=C(O)c1sccc1OC(F)F`, the melting point lay within 98 to 100 °C.
Compound `CC(CS(=O)(=O)c1ccc(Oc2ccc(Cl)cc2)cc1)N(O)C=O` (configuration not stated) registered a melting point of 144 to 145 °C.
Consider `O=C(NC[C@H]1CN(c2ccc(N3CCS(=O)(=O)CC3)c(F)c2)C(=O)O1)C(F)F`, for which the melting point was in the range of 177 to 178 °C.
For `CNc1nc(-c2cccc(NC(=O)CCc3ccccc3)c2)c2cc(OC)c(OC)cc2n1`, the melting point lay in the range of 180 to 182 °C.
Compound `CCc1nc2sc3ccccc3n2c1CO` registered a melting point of 180 to 182 °C.
For `COCOc1ccc(C(=O)COc2cc(OCc3ccccc3)ccc2CO)c(OCc2ccccc2)c1`, the melting point is 115 to 118 °C.
The compound `Cc1cc2nncn2nc1-c1ccc(C(N)=S)cc1` returned a melting point of 268 to 272 °C.
Turning to `Cc1cc2ncnn2nc1OCC(C)(C)CS(N)(=O)=O`, the melting point lay within 216 to 218 °C.
With `NS(=O)(=O)c1ccc(-c2cscc2-c2ccc(F)cc2)cc1`, the melting point is 194 to 195 °C.
`O=c1ccn(C2CCCO2)c(=O)[nH]1` (configuration not stated) returned a melting point of 99 to 101 °C.
The value for `Cn1cc(C(=O)NCc2ccc(Cl)cc2)c(=O)c2cc(CN3CCSCC3)ccc21` was 215 to 219 °C; that for `Cc1nc(N2CCN(Cc3ccc(F)cc3)C2=O)sc1C(=O)NCc1ccccn1` was 183 to 185 °C; that for `CC(C)C(=O)NC1CCc2c(c3cc(-c4ccccn4)ccc3n2Cc2cccc(F)c2)C1` (configuration not stated) was 228 to 230 °C.
Consider `COC(=O)c1ccc(F)c2c1C=CCO2`, for which the melting point was in the range of 73.5 to 74.5 °C.
On to `COC(=O)c1c(Cc2ccc(C(=O)NC3CCC(O)CC3)cc2)c(=O)c2ccc(Cl)cc2n1-c1ccccc1` (configuration not stated), for which the melting point lay in the range of 151 to 152 °C.
Compound `COc1ccc(/C=C/c2nc3c([nH]2)c(=O)n(C)c(=O)n3C)c(OC)c1C` had a melting point above 280 °C.
The compound `CCOC(=O)c1ccc2[nH]c(C)c(SC)c2c1` registered a melting point of 127 to 130 °C.
`CS(=O)(=O)c1ccc(Nc2ccn(-c3ccccc3)n2)cc1` displayed a melting point of 185 to 187 °C.
Consider `COc1ccccc1Sc1c(O)nc[nH]c1=O`, for which the melting point worked out at 291 °C.
Compound `CNc1nc(C(C)c2ccc(-c3ccccc3)c(F)c2)co1` (configuration not stated) had a melting point of 134 to 135 °C.
Compound `CCOC(=O)C(C)CSCC(NC(=O)CCC(N)C(=O)O)C(=O)NCC(=O)O` (configuration not stated) showed a melting point of 193 to 194 °C.
The compound `CCn1c(=O)c2[nH]c(/C=C/c3cc(OC)c(OC)cc3[N+](=O)[O-])nc2n(CC)c1=O` displayed a melting point of 284 °C.
The compound `O=C(O)CCc1cccc(-c2nc(=O)c3ccc(Cl)cc3s2)n1` came in with a melting point of 224 to 225 °C.
The value for `CCn1cc(C(=O)O)c(=O)c2cc(N)c(-c3cc(C)nc(C)c3)cc21` was 288 to 290 °C; that for `O=C(O)Cc1sc(Nc2ccccc2)nc1-c1ccc(Cl)cc1` was 256 to 257 °C; that for `O=C(c1c(C2CC2)nn2ccccc12)C1CC1` was 102 to 104 °C.
The compound `O=C(CCc1ccccc1)c1ccc2n1Cc1ccccc1N(C(=O)COc1ccc(Cl)cc1)C2` returned a melting point of 126 to 128 °C.
The value for `Nc1c(C(=O)O)cccc1-c1ccc(CCc2ccc(Cl)c(C(F)(F)F)c2)cc1` was 150 to 152 °C.
The value for `CC[N+](CC)(CC)C1CC(=O)N1C(C(=O)OCc1ccc([N+](=O)[O-])cc1)=C([O-])CCSC` (configuration not stated) was 91 °C; that for `OC1CSC(Oc2cccc(-c3cc(Cl)ccn3)c2)C(O)C1O` (configuration not stated) was 97 to 105 °C; that for `CCN(CC)C(=O)c1nc(-c2cccc3ccccc23)no1` was 102 °C.
`Cc1ccc(NC(=O)c2ccc(CN3CC[N+](C)([O-])CC3)cc2)cc1Nc1nccc(-c2cccnc2)n1`: the melting point fell in the range of 154 to 158 °C.
Compound `N#Cc1c2ccccc2c(C=O)c2ccccc12` returned a melting point of 270 to 275 °C.
On to `COc1cc(N)c(Cl)cc1C(=O)NCC1CCN(CCCC(=O)c2ccc(O)cc2)CC1`, for which the melting point fell in the range of 199 to 201 °C.
`Cc1ccc2c(c1)C=Cc1cc(C)ccc1C2c1cn(Cc2nc(C(=O)O)co2)c(=O)[nH]c1=S` displayed a melting point of 273 °C.
For `CS(=O)(=O)OCCc1ccc(N2CCCC2=O)cc1`, the melting point worked out at 94 °C.
The value for `COC[C@H]1CC[C@@H](n2c(=O)[nH]c3c(C(N)=O)nc(-c4cccc(O)c4)nc32)CC1` was 324 to 326 °C.
`COC(=S)c1cc(N)cc(N)c1C` showed a melting point of 102 to 104 °C.
As for `N#CCOC(=O)c1ccc2nc3ccc(O)cc3c(=O)n2c1`, the melting point is 260 to 262 °C.
The compound `NC1CCN(c2c(F)cc3c(=O)c(C(=O)O)cn(C4CC4)c3c2Cl)C1` (configuration not stated) returned a melting point of 241 to 242 °C.
In the case of `CNC(=O)Oc1c(OC)cc(OC)c2ccccc12`, the melting point is 131 to 133 °C.
The compound `O=C(O)C(=O)c1ccc(OCCCCOc2ccccc2)cc1` showed a melting point of 103 to 105 °C.
Regarding `N#Cc1ccc(CC23CCCN2C(=O)N(c2cc(Cl)cc(-n4cccc4C=O)c2)C3=O)cc1` (configuration not stated), the melting point was 110 °C.
The value for `COC(=O)c1ccc2cc(-c3ccc(C(=O)OC)c(C45CC6CC(CC(C6)C4)C5)c3)ccc2c1` was 181 to 182 °C.
The compound `O=C1CCC(C(=O)Nc2ccc(-n3nc(C(F)(F)F)cc3C(F)(F)F)cc2)O1` (configuration not stated) had a melting point of 172 to 173 °C.
In turn, `C#CCOc1ccc(C)cc1S(N)(=O)=O` had a melting point of 169 to 170 °C.
`COc1ccc(-c2ccc(OC(C)CC(C)Oc3ccc(-c4ccc(OC)cc4)cc3)cc2)cc1` (configuration not stated) returned a melting point of 164 °C.
Compound `CCCCn1c(=O)c(N)c(C)n(CCC(C)C)c1=O` registered a melting point of 68 to 70 °C.
In turn, `COC(=O)c1ccc(OCCNC(=O)C2Cc3ccccc3N2S(=O)(=O)c2ccc(-c3ccc(F)cc3)cc2)cc1Cl` (configuration not stated) yielded a melting point of 70 to 79 °C.
`COC(=O)[C@H](O)CCCc1ccc(OCc2nc(-c3ccco3)oc2C)c(OC)c1` yielded a melting point of 80 to 81 °C.
With `Cc1cc(-c2c(-c3ccc(S(C)(=O)=O)cc3)cnn(-c3ccc(F)cc3)c2=O)ccc1F`, the melting point was in the range of 168 to 170 °C.
The value for `COc1ccc(Cl)cc1CCCC(=O)O` was 79 to 81 °C.
Turning to `Cc1cccc(NC(=O)NCC(=O)N2[C@@H](c3ccccc3)CC[C@H]2c2ccccc2)c1`, the melting point was 168 °C.
`O=C(O)Cc1ccc(C(NC(=O)c2ccccc2)C(=O)O)cc1` (configuration not stated) gave a melting point of 180 to 220 °C.
Take `CC(=O)N1CCc2cc(C[C@@H](C)NCCOc3ccccc3OCC(F)(F)F)cc(C(N)=O)c21`: the melting point was in the range of 144 to 146 °C.
`CCc1c(C#N)oc2ccc(Br)cc12` had a melting point of 68 to 69 °C.
`c1cncc(-c2ccsc2)c1` registered a melting point of 75 to 77 °C.
The value for `CCN1C(=O)C(C)(C)C(=O)N(C)c2cc(CN(CCn3ccc4oc(C)cc4c3=O)Cc3cccc4c3OCO4)ccc21` was 136 to 138 °C; that for `Nc1nc2c(s1)CCNCC2` was 150 to 160 °C.
Compound `O=S1(=O)c2ccccc2NC(CO)c2cccn21` (configuration not stated) gave a melting point of 135 to 136 °C.
The value for `c1ccc(CN2CCN(Cc3ccccc3)[C@@H](CCc3ccccn3)C2)cc1` was 83 to 86 °C.
The value for `CCC(CC)O[C@@H]1C=C(C(=O)O)C[C@H](CC(O)CN=[N+]=[N-])[C@H]1NC(C)=O` (some centres not stated) was 126 to 127 °C; that for `O=C(Nc1cccc(S(=O)(=O)NC2CC2)c1)c1cnn2c(C(F)(F)F)cc(-c3ccc(Cl)cc3)nc12` was 257 °C; that for `C=CCN1C2CCC1C1CCC2N1C(c1ccc(C(=O)N(CC)CC)cc1)c1cccc(OC)c1` (configuration not stated) was 99 to 101 °C.
Take `CC(Oc1cccc2c1C(=O)N(C1CCC(=O)NC1=O)C2=O)c1ccc2ccccc2c1` (configuration not stated): the melting point lay within 174 to 176 °C.
